Read-outs that look alike come from different tables or passages of the source.
Key:
E. coli strain MG1655 [1] = settings: log-phase
Protocol: A similar study was done with log-phase cultures of E. coli grown in a defined medium. E. coli strain MG1655 was allowed to grow overnight in MOPS 0.2% glucose medium (Teknova, Half Moon Bay, Calif.) at 42° C. or 28° C. The following day, the cultures were diluted into fresh medium and allowed to grow at the same temperature until in the log phase of growth. […] To these were added 10 μL of the log phase cultures and the tubes were immediately placed in shaking incubators at 42° C. or 28° C. or left on ice for 30 min. […] Then 5 μL of the undiluted treated cultures were spotted on LB agar plates. Subsequent 10-fold serial dilutions of 10^−3, 10^−4, 10^−5 and 10^−6 of the exposed cultures were done by serial pipetting of 20 μL, starting with the 10^−2 dilution cultures, into 180 μL of LB medium in the microplate, using a multi-channel pipette. Prior to each transfer, the cultures were mixed by pipetting up and down six times. Each dilution (5 μL) was spotted onto an LB plate using a multi-channel pipette and allowed to soak into the plate. The plates were inverted and incubated overnight at 37° C. […] Survival of 0% was recorded when no colonies in the spots of the undiluted or any of the serial dilutions were observed.

E. coli strain MG1655 [2] = settings: stationary phase
Protocol: For the stationary phase studies, E. coli strain MG1655 (ATCC # 700926) was grown overnight in LB medium (Teknova, Half Moon Bay, Calif.) with shaking at 250 rpm at 42° C., […] 28° C. […] To these were added 10 μL of the overnight cultures and the tubes were immediately placed in shaking incubators at 42° C. or 28° C. or left on ice for 30 min. […] Then, 5 μL of the undiluted treated cultures were spotted on LB agar plates. Subsequent 10-fold serial dilutions of 10^−3, 10^−4, 10^−5 and 10^−6 of the exposed cultures were done by serial pipetting of 20 μL, starting with the 10^−2 dilution cultures, into 180 μL of LB medium in the microplate, using a multi-channel pipette. Prior to each transfer, the cultures were mixed by pipetting up and down six times. Each dilution (5 μL) was spotted onto an LB plate using a multi-channel pipette and allowed to soak into the plate. The plates were inverted and incubated overnight at 37° C. […] Survival of 0% was recorded when no colonies in the spots of the undiluted or any of the serial dilutions were observed.

[3] = 1-butanol 1.0 % (w/v), grown at 28° C.
[4] = 1-butanol 1.0 % (w/v), grown at 42° C.
[5] = 1-butanol 1.5 % (w/v), grown at 28° C.
[6] = 1-butanol 1.5 % (w/v), grown at 42° C.
[7] = 1-butanol 2.0 % (w/v), grown at 28° C.
[8] = 1-butanol 2.0 % (w/v), grown at 42° C.
[9] = 1-butanol 3.0 % (w/v), grown at 28° C.
[10] = 1-butanol 3.0 % (w/v), grown at 29° C.
[11] = 1-butanol 3.0 % (w/v), grown at 42° C.
[12] = 1-butanol 4.0 % (w/v), grown at 28° C.
[13] = 1-butanol 4.0 % (w/v), grown at 29° C.
[14] = 1-butanol 4.0 % (w/v), grown at 42° C.
[15] = 1-butanol 5.0 % (w/v), grown at 29° C.
[16] = 1-butanol 5.0 % (w/v), grown at 42° C.
[17] = 1-butanol 6.0 % (w/v), grown at 29° C.
[18] = 1-butanol 6.0 % (w/v), grown at 42° C.
[19] = 1-butanol […] (w/v), grown at 29° C.
[20] = 1-butanol […] (w/v), grown at 42° C.
[21] = 1-butanol 1.0 % (w/v), grown at 29° C.
[22] = 1-butanol 1.5 % (w/v), grown at 29° C.
[23] = 1-butanol 2.0 % (w/v), grown at 29° C.

For 1-butanol, the “% survival after 30 min exposure at 42° C.” value (“% survival … at 42° C.” for short) (E. coli strain MG1655 [1]; [3]) was 100%, the “% survival … at 42° C.” value (E. coli strain MG1655 [1]; [4]) was 100% and the “% survival after 30 min exposure at 28° C.” value (from here on “% survival … at 28° C.”) (E. coli strain MG1655 [1]; [5]) was 100%. For the same substance, the “% survival … at 42° C.” value (E. coli strain MG1655 [1]; [5]) was 0%, the “% survival … at 28° C.” value (E. coli strain MG1655 [1]; [6]) was 100% and the “% survival … at 42° C.” value (E. coli strain MG1655 [1]; [6]) was 0%. For the same substance, the “% survival … at 28° C.” value (E. coli strain MG1655 [1]; [7]) was 100%, the “% survival … at 42° C.” value (E. coli strain MG1655 [1]; [7]) was 0% and the “% survival … at 28° C.” value (E. coli strain MG1655 [1]; [8]) was 100%. For the same substance, the “% survival … at 42° C.” value (E. coli strain MG1655 [1]; [8]) was 0%, the “% survival … at 28° C.” value (E. coli strain MG1655 [1]; [9]) was 0% and the “% survival … at 42° C.” value (E. coli strain MG1655 [1]; [9]) was 0%. The “% survival after 30 min exposure at 0° C.” value (“% survival … at 0° C.” below) (E. coli strain MG1655 [1]; [10]) was 100%, the “% survival … at 0° C.” value (E. coli strain MG1655 [1]; [11]) was 100% and the “% survival … at 28° C.” value (E. coli strain MG1655 [1]; [11]) was 0%. The “% survival … at 42° C.” value (E. coli strain MG1655 [1]; [11]) was 0%, the “% survival … at 28° C.” value (E. coli strain MG1655 [1]; [12]) was 0% and the “% survival … at 42° C.” value (E. coli strain MG1655 [1]; [12]) was 0%. For the same substance, the “% survival … at 0° C.” value (E. coli strain MG1655 [1]; [13]) was 100%, the “% survival … at 0° C.” value (E. coli strain MG1655 [1]; [14]) was 100% and the “% survival … at 28° C.” value (E. coli strain MG1655 [1]; [14]) was 0.001%. The “% survival … at 42° C.” value (E. coli strain MG1655 [1]; [14]) was 0%, the “% survival … at 0° C.” value (E. coli strain MG1655 [1]; [15]) was 50% and the “% survival … at 0° C.” value (E. coli strain MG1655 [1]; [16]) was 10%. For the same substance, the “% survival … at 0° C.” value (E. coli strain MG1655 [1]; [17]) was 1%, the “% survival … at 0° C.” value (E. coli strain MG1655 [1]; [18]) was 1% and the “% survival … at 42° C.” value (E. coli strain MG1655 [1]; 1-butanol […] (w/v), grown at 28° C.) was 0%. For the same substance, the “% survival … at 0° C.” value (E. coli strain MG1655 [1]; [19]) was 100%, the “% survival … at 0° C.” value (E. coli strain MG1655 [1]; [20]) was 100% and the “% survival … at 42° C.” value (E. coli strain MG1655 [1]; [20]) was 0%. The “% survival … at 28° C.” value (E. coli strain MG1655 [2]; [3]) was 100%, the “% survival … at 0° C.” value (E. coli strain MG1655 [2]; [21]) was 100% and the “% survival … at 42° C.” value (E. coli strain MG1655 [2]; [21]) was 100%. For the same substance, the “% survival … at 0° C.” value (E. coli strain MG1655 [2]; [4]) was 100%, the “% survival … at 28° C.” value (E. coli strain MG1655 [2]; [4]) was 100% and the “% survival … at 42° C.” value (E. coli strain MG1655 [2]; [4]) was 100%. For the same substance, the “% survival … at 28° C.” value (E. coli strain MG1655 [2]; [5]) was 100%, the “% survival … at 0° C.” value (E. coli strain MG1655 [2]; [22]) was 100% and the “% survival … at 42° C.” value (E. coli strain MG1655 [2]; [22]) was 0.1%. The “% survival … at 0° C.” value (E. coli strain MG1655 [2]; [6]) was 100%, the “% survival … at 28° C.” value (E. coli strain MG1655 [2]; [6]) was 100% and the “% survival … at 42° C.” value (E. coli strain MG1655 [2]; [6]) was 0.1%. For the same substance, the “% survival … at 28° C.” value (E. coli strain MG1655 [2]; [7]) was 100%, the “% survival … at 0° C.” value (E. coli strain MG1655 [2]; [23]) was 100% and the “% survival … at 42° C.” value (E. coli strain MG1655 [2]; [23]) was 0.1%. The “% survival … at 0° C.” value (E. coli strain MG1655 [2]; [8]) was 100%, the “% survival … at 28° C.” value (E. coli strain MG1655 [2]; [8]) was 100% and the “% survival … at 42° C.” value (E. coli strain MG1655 [2]; [8]) was 0%. The “% survival … at 28° C.” value (E. coli strain MG1655 [2]; [9]) was 100%, the “% survival … at 0° C.” value (E. coli strain MG1655 [2]; [10]) was 100% and the “% survival … at 42° C.” value (E. coli strain MG1655 [2]; [10]) was 0%. For the same substance, the “% survival … at 0° C.” value (E. coli strain MG1655 [2]; [11]) was 100%, the “% survival … at 28° C.” value (E. coli strain MG1655 [2]; [11]) was 100% and the “% survival … at 42° C.” value (E. coli strain MG1655 [2]; [11]) was 0%. For the same substance, the “% survival … at 28° C.” value (E. coli strain MG1655 [2]; [12]) was 0.0003%, the “% survival … at 0° C.” value (E. coli strain MG1655 [2]; [13]) was 100% and the “% survival … at 42° C.” value (E. coli strain MG1655 [2]; [13]) was 0%. The “% survival … at 0° C.” value (E. coli strain MG1655 [2]; [14]) was 100%, the “% survival … at 28° C.” value (E. coli strain MG1655 [2]; [14]) was 0.0004% and the “% survival … at 42° C.” value (E. coli strain MG1655 [2]; [14]) was 0%. The “% survival … at 0° C.” value (E. coli strain MG1655 [2]; [15]) was 1%, the “% survival … at 0° C.” value (E. coli strain MG1655 [2]; [16]) was 1% and the “% survival … at 0° C.” value (E. coli strain MG1655 [2]; [17]) was 0.001%. The “% survival … at 0° C.” value (E. coli strain MG1655 [2]; [18]) was 0%, the “% survival … at 0° C.” value (E. coli strain MG1655 [2]; 1-butanol 7.0 % (w/v), grown at 29° C.) was 0% and the “% survival … at 0° C.” value (E. coli strain MG1655 [2]; 1-butanol 7.0 % (w/v), grown at 42° C.) was 0%. The “% survival … at 0° C.” value (E. coli strain MG1655 [2]; [19]) was 100%, the “% survival … at 42° C.” value (E. coli strain MG1655 [2]; [19]) was 0% and the “% survival … at 0° C.” value (E. coli strain MG1655 [2]; [20]) was 100%. For the same substance, the “% survival … at 42° C.” value (E. coli strain MG1655 [2]; [20]) was 0%.

From patent US20080274522A1, “METHOD FOR THE PRODUCTION OF 2-BUTANONE” (priority 2007, published 2008)
